From patent US20190240225A1, “COMBINATION OF A BCL-2 INHIBITOR AND A MCL-1 INHIBITOR, USES AND PHARMACEUTICAL COMPOSITIONS THEREOF” (LES LABORATOIRES SERVIER, priority 2016, published 2019)
Read-outs that look alike come from different tables or passages of the source.

Legend:
SBN = experiment: MTT cell viability assay, myeloma cell line; assay type: cell-based, human
Experimental: (§1) Cell lines: Human myeloma cell lines (HMCLs) were derived from primary myeloma cells cultured in RPMI 1640 medium supplemented with 5% fetal calf serum from and 3 ng/mL recombinant IL-6 for IL-6 dependent cell lines. HMCLs are representative of phenotypic and genomic heterogeneity and the variability in patient's response to therapy.
(§2) MTT assay: Cell viability is measured using MTT (3-(4,5-dimethylthiazol-2-yl)-2,5-diphenyltetrazolium bromide) colorimetric survival assay. Cells are incubated with compounds in 96-well plates containing a final volume of 100 μl/well time. (2R)-2-{[(5Sa)-5-{3-chloro-2-methyl-4-[2-(4-methylpiperazin-1-yl)ethoxy]phenyl}-6-(5-fluorofuran-2-yl)thieno[2,3-d]pyrimidin-4-yl]oxy}-3-(2-{[1-(2,2,2-trifluoroethyl)-1H-pyrazol-5-yl]methoxy}phenyl)propanoic acid (Compound 2) is used at 9 different concentrations accordingly to single agent sensitivity. N-(4-hydroxyphenyl)-3-{6-[((3S)-3-(4-morpholinylmethyl)-3,4-dihydro-2(1H)-isoquinolinyl)carbonyl]-1,3-benzodioxol-5-yl}-N-phenyl-5,6,7,8-tetrahydro-1-indolizine carboxamide hydrochloride (Compound 1, HCl) is used at a fixed dose—1 μM. At the end of each treatment, cells are incubated with 1 mg/mL MTT (50 μl MTT solution 2.5 mg/ml for each well) at 37° C. for 3 hours allowing the MTT to be metabolized. Lysis buffer (100 μl Lysis buffer: DMF (2:3)/SDS (1:3)) is added into each well to dissolve formazan cristals and after 18 h of incubation, absorbance in viable cells is measured at 570 nm using a spectrophotometer.
(§3) The sensitivity of 27 human multiple myeloma cell lines to Compound 1, Compound 2 or to Compound 2 in the presence of 1 μM of Compound 1 was analyzed by using MTT cell viability assay. 50% inhibitory concentrations (IC50, in nM) were determined.

AMO1 = experiment: MTT cell viability assay, myeloma cell line; assay type: cell-based, human
Experimental: as §1, §2, §3

U266 = experiment: MTT cell viability assay, myeloma cell line; assay type: cell-based, human
Experimental: as §1, §2, §3

JIM3 = experiment: MTT cell viability assay, myeloma cell line; assay type: cell-based, human
Experimental: as §1, §2, §3

XG11 = experiment: MTT cell viability assay, myeloma cell line; assay type: cell-based, human
Experimental: as §1, §2, §3

NCI-H929 = experiment: MTT cell viability assay, myeloma cell line; assay type: cell-based, human
Experimental: as §1, §2, §3

NAN8 = experiment: MTT cell viability assay, myeloma cell line; assay type: cell-based, human
Experimental: as §1, §2, §3

BCN = experiment: MTT cell viability assay, myeloma cell line; assay type: cell-based, human
Experimental: as §1, §2, §3

KMS11 = experiment: MTT cell viability assay, myeloma cell line; assay type: cell-based, human
Experimental: as §1, §2, §3

XG1 = experiment: MTT cell viability assay, myeloma cell line; assay type: cell-based, human
Experimental: as §1, §2, §3

XG3 = experiment: MTT cell viability assay, myeloma cell line; assay type: cell-based, human
Experimental: as §1, §2, §3

KMS12BM = experiment: MTT cell viability assay, myeloma cell line; assay type: cell-based, human
Experimental: as §1, §2, §3

L363 = experiment: MTT cell viability assay, myeloma cell line; assay type: cell-based, human
Experimental: as §1, §2, §3

OPM2 = experiment: MTT cell viability assay, myeloma cell line; assay type: cell-based, human
Experimental: as §1, §2, §3

RPMI8226 = experiment: MTT cell viability assay, myeloma cell line; assay type: cell-based, human
Experimental: as §1, §2, §3

KMM1 = experiment: MTT cell viability assay, myeloma cell line; assay type: cell-based, human
Experimental: as §1, §2, §3

ANBL6 = experiment: MTT cell viability assay, myeloma cell line; assay type: cell-based, human
Experimental: as §1, §2, §3

XG2 = experiment: MTT cell viability assay, myeloma cell line; assay type: cell-based, human
Experimental: as §1, §2, §3

NAN6 = experiment: MTT cell viability assay, myeloma cell line; assay type: cell-based, human
Experimental: as §1, §2, §3

MM1S = experiment: MTT cell viability assay, myeloma cell line; assay type: cell-based, human
Experimental: as §1, §2, §3

NAN1 = experiment: MTT cell viability assay, myeloma cell line; assay type: cell-based, human
Experimental: as §1, §2, §3

NAN3 = experiment: MTT cell viability assay, myeloma cell line; assay type: cell-based, human; conditions: single agent
Experimental: as §1, §2, §3

LP1 = experiment: MTT cell viability assay, myeloma cell line; assay type: cell-based, human
Experimental: as §1, §2, §3

JJN3 = experiment: MTT cell viability assay, myeloma cell line; assay type: cell-based, human
Experimental: as §1, §2, §3

XG6 = experiment: MTT cell viability assay, myeloma cell line; assay type: cell-based, human
Experimental: as §1, §2, §3

NAN9 = experiment: MTT cell viability assay, myeloma cell line; assay type: cell-based, human
Experimental: as §1, §2, §3

XG7 = experiment: MTT cell viability assay, myeloma cell line; assay type: cell-based, human
Experimental: as §1, §2, §3

primary AML blasts = experiment: Cell viability (sytox blue, flow cytometry) of primary AML patient samples, LC50; assay type: cell-based, human; conditions: 54 primary AML samples; 48 h; RPMI/15% FCS; combination at 1:1
Experimental: Primary AML patient samples: Bone marrow or peripheral blood samples from patients with AML were collected after informed consent in accordance with guidelines approved by The Alfred Hospital Human research ethics committees. Mononuclear cells were isolated by Ficoll-Paque (GE Healthcare, VIC, Aus) density-gradient centrifugation, followed by red cell depletion in ammonium chloride (NH4Cl) lysis buffer at 37° C. for 10 minutes. Cells were then re-suspended in phosphate-buffered saline containing 2% Fetal Bovine serum (Sigma, NSW, Aus). Mononuclear cells were then suspended in RPMI-1640 (GIBCO VIC, Aus) medium containing penicillin and streptomycin (GIBCO) and heat inactivated fetal bovine serum 15% (Sigma).
Cell Viability: Freshly purified mononuclear cells from AML patient samples were adjusted to a concentration of 2.5×10^5/ml and 100 μL of cells aliquoted per well into 96 well plates (Sigma). […] For combinations assays, drugs were added at a 1:1 ratio from 1 nM to 10 μM and incubated at 37° C. 5% CO2. Cells were then stained with sytox blue nucleic acid stain (Invitrogen, VIC, Aus) and fluorescence measured by flow cytometric analysis using the LSR-II Fortessa (Becton Dickinson, NSW, Aus). FACSDiva software was used for data collection, and FlowJo software for analysis. Blast cells were gated using forward and side scatter properties. […]

MV4;11 AML cells = experiment: Luciferase MV4;11 AML engraftment model in NSG mice; assay type: in vivo, mouse; conditions: MV4;11-luciferase, Compound 1, HCl 100 mg/kg oral daily, Compound 2 25 mg/kg IV twice weekly, 4 weeks
Experimental: In vivo experimentation AML engraftment: Animal studies were performed under the institutional guidelines approved by the Alfred Medical Research and Education Precinct Animal Ethics Committee, MV4; 11 cells transduced with the luciferase reporter (pLUC2) were intravenously injected at 1×10^5 cells into irradiated (100 Rad) non-obese diabetic/severe combined immunodeficient (NOD/SCID/IL2rγnull) mice as previously described (Jin et al., Cell Stem Cell 2 Jul. 2009, Volume 5, Issue 1, Pages 31-42). Engraftment was measured at day 7 by quantifying the percentage of hCD45+ cells in the PB by flow cytometry and by IVIS imaging of bioluminescent MV4; 11 cells. At day 10, mice received daily oral gavage of Compound 1, HCl (200 μL 100mg/kg—dosage expressed as the free base) dissolved in PEG400 (Sigma), absolute ethanol (Sigma) and distilled H20 40:10:60 or Compound 2 (200 μL 25 mg/kg) twice weekly dissolved in 50% 2-hydroxypropyl)-β-cyclodextrin (Sigma) and 50% 50mM HCl or the drug combination or vehicle, over 4 weeks. Blood counts were determined using a hematology analyzer (BioRad, Gladesville, NSW). […]
To verify the in vivo activity of this approach, luciferase expressing MV4; 11 AML cells were engrafted into NSG mice and treated with Compound 1 (HCl salt) or Compound 2 alone, or in combination and tumour burden assessed after 14 and 21 days of therapy (FIG. 2B). […]

[1] = + 1 μM Compound 1, HCl, read-out: IC50 of Compound 2 in the presence of 1 μM of Compound 1, HCl

Q: `Cc1c(-c2c(-c3ccc(F)o3)sc3ncnc(O[C@H](Cc4ccccc4OCc4ccnn4CC(F)(F)F)C(=O)O)c23)ccc(OCCN2CCN(C)CC2)c1Cl` [Compound 2, (2R)-2-{[(5Sa)-5-{3-chloro-2-methyl-4-[2-(4-methylpiperazin-1-yl)ethoxy]phenyl}-6-(5-fluorofuran-2-yl)thieno[2,3-d]pyrimidin-4-yl]oxy}-3-(2-{[1-(2,2,2-trifluoroethyl)-1H-pyrazol-5-yl]methoxy}phenyl)propanoic acid] was tested. Which IC50 (SBN; [1]) did it give?
A: 14.6 nM

Q: What about the IC50 (SBN; single agent, read-out: IC50) of the same molecule?
A: 221 nM

Q: And the IC50 (AMO1; [1])?
A: 0.2 nM

Q: What about the IC50 (AMO1; single agent, read-out: IC50) of the same molecule?
A: 0.5 nM

Q: What about the IC50 (U266; [1]) of the same molecule?
A: 14.9 nM

Q: What about the IC50 (U266; single agent, read-out: IC50) of the same molecule?
A: 170 nM

Q: And the IC50 (JIM3; [1])?
A: 25.9 nM

Q: What about the IC50 (JIM3; single agent, read-out: IC50) of the same molecule?
A: 56.3 nM

Q: What about the IC50 (XG11; [1]) of the same molecule?
A: 8.3 nM

Q: What about the IC50 (XG11; single agent, read-out: IC50) of the same molecule?
A: 375 nM

Q: What about the IC50 (NCI-H929; [1]) of the same molecule?
A: 1 nM

Q: And the IC50 (NCI-H929; single agent, read-out: IC50)?
A: 2.3 nM

Q: And the IC50 (NAN8; [1])?
A: 32.5 nM

Q: What about the IC50 (NAN8; single agent, read-out: IC50) of the same molecule?
A: 75.4 nM

Q: What about the IC50 (BCN; [1]) of the same molecule?
A: 59.3 nM

Q: What about the IC50 (BCN; single agent, read-out: IC50) of the same molecule?
A: 1110 nM

Q: What about the IC50 (KMS11; [1]) of the same molecule?
A: 3.9 nM

Q: What about the IC50 (KMS11; single agent, read-out: IC50) of the same molecule?
A: 44.1 nM

Q: And the IC50 (XG1; [1])?
A: 0.2 nM

Q: And the IC50 (XG1; single agent, read-out: IC50)?
A: 5.9 nM

Q: And the IC50 (XG3; [1])?
A: 1.3 nM

Q: What about the IC50 (XG3; single agent, read-out: IC50) of the same molecule?
A: 6.1 nM

Q: What about the IC50 (KMS12BM; [1]) of the same molecule?
A: 0.03 nM

Q: And the IC50 (KMS12BM; single agent, read-out: IC50)?
A: 44.1 nM

Q: What about the IC50 (L363; [1]) of the same molecule?
A: 3.4 nM

Q: What about the IC50 (L363; single agent, read-out: IC50) of the same molecule?
A: 7.6 nM

Q: What about the IC50 (OPM2; [1]) of the same molecule?
A: 1.2 nM

Q: And the IC50 (OPM2; single agent, read-out: IC50)?
A: 9.4 nM

Q: And the IC50 (RPMI8226; [1])?
A: 3 nM

Q: And the IC50 (RPMI8226; single agent, read-out: IC50)?
A: 27.4 nM

Q: And the IC50 (KMM1; [1])?
A: 8.6 nM

Q: And the IC50 (KMM1; single agent, read-out: IC50)?
A: 57.8 nM

Q: What about the IC50 (ANBL6; [1]) of the same molecule?
A: 20.8 nM

Q: What about the IC50 (ANBL6; single agent, read-out: IC50) of the same molecule?
A: 79.5 nM

Q: What about the IC50 (XG2; [1]) of the same molecule?
A: 2.7 nM

Q: And the IC50 (XG2; single agent, read-out: IC50)?
A: 6.4 nM

Q: And the IC50 (NAN6; [1])?
A: 1.8 nM

Q: And the IC50 (NAN6; single agent, read-out: IC50)?
A: 7.1 nM

Q: And the IC50 (MM1S; [1])?
A: 23 nM

Q: And the IC50 (MM1S; single agent, read-out: IC50)?
A: 138 nM

Q: What about the IC50 (NAN1; [1]) of the same molecule?
A: 1.4 nM

Q: And the IC50 (NAN1; single agent, read-out: IC50)?
A: 5.7 nM

Q: And the IC50 (NAN3)?
A: 1.5 nM

Q: And the IC50 (LP1; [1])?
A: 2.9 nM

Q: What about the IC50 (LP1; single agent, read-out: IC50) of the same molecule?
A: 158 nM

Q: What about the IC50 (JJN3; [1]) of the same molecule?
A: 2.4 nM

Q: And the IC50 (JJN3; single agent, read-out: IC50)?
A: 15.6 nM

Q: And the IC50 (XG6; [1])?
A: 0.5 nM

Q: And the IC50 (XG6; single agent, read-out: IC50)?
A: 19.2 nM

Q: What about the IC50 (NAN9; [1]) of the same molecule?
A: 1.1 nM

Q: And the IC50 (NAN9; single agent, read-out: IC50)?
A: 9.7 nM

Q: What about the IC50 (XG7; [1]) of the same molecule?
A: 8 nM

Q: What about the IC50 (XG7; single agent, read-out: IC50) of the same molecule?
A: 16.3 nM

Q: And the “proportion of primary AML samples highly sensitive (LC50<10 nM)” value (primary AML blasts)?
A: Approximately 20%

Q: And the “in vivo anti-leukaemic activity (luciferase tumour burden, survival)” value (MV4;11 AML cells)?
A: reduced luciferase bulk
